Measured values as given in patent US20160144055A1, “GENE THERAPY VECTOR FOR TREATMENT OF STEROID GLAUCOMA” (priority 2009, published 2016).
Several values for one entry are separate records, joined by “and”; a condition that tells them apart may be missing. Equal entries are not always repeated. Where two headings read alike, the source gives them in different places.

Experiments:
[1] = tested on: MMP1 expression in primary HTM cells; experiment: Endogenous MMP1 expression in glucocorticoid-treated primary HTM cells (real-time TaqMan PCR); assay type: cell-based, human
Experimental: To generate primary HTM cells, the trabecular meshwork tissue was dissected from residual cornea rims after surgical corneal transplantation at the University of North Carolina Eye Clinic, Chapel Hill, N.C., United States of America. Trabecular meshworks were isolated from surrounding tissue, cut into small pieces and treated with 1 mg/ml collagenase type IV (Worthington, Lakewood, N.J., United States of America), as previously described (Vittitow et al., Mol Via 2002; 8:32-44). Cells were maintained at 37° C., 7% CO2 in MEM Richter's modification medium (HyClone, Thermo Fisher Scientific, Waltham, Mass., United States of America) supplemented with 20% FBS and 50 ug/ml gentamicin (Gibco Invitrogen, Carlsbad, Calif., United States of America). At confluency, cells were passed and maintained in the same medium but with 10% FBS (complete medium). All cells were used at passages 4 to 6. These outflow pathway cultures include cells from the three distinct regions of the trabecular meshwork plus cells lining the Schlemm's canal (SC). Because most of the cells in these cultures come from the trabecular meshwork they are commonly referred to as trabecular meshwork cells. The cells used in this study were from a person (HTM-109), a person (HTM-95), a person (HTM-106) and a person (HTM-140).
Drug treatments on the HTM cells were conducted in complete media. HTM cells were grown to pre-confluency and exposed to drugs as follows. Treatment with dexamethasone (DEX; Sigma, St. Louis, Mo., United States of America) was conducted at a final concentration of 0.1 uM. DEX was reconstituted in absolute ethanol at 0.1 mM and diluted 1,000-fold into complete media every 48 to 72 hours for the duration of the experiment. Treatment with triamcinolone acetonide (Kenacort-A; Bristol-Myers Squibb, New York, N.Y., United States of America) was performed at a final concentration of 0.1 mg/ml. Kenacort-A 40 mg/ml suspension was well mixed and diluted into complete medium 400-fold at the time of use. The concentration of 0.1 mg/ml triamcinolone acetonide was chosen because intravitreal injections of 1 mg/ml are widely used in the clinical setting, which would result in a lower concentration of the steroid in the aqueous humor. In addition, the concentration of 0.1 mg/ml has been successfully studied in trabecular meshwork cells (Fan B J et al., Invest Ophthalmol Vis Sci. 2008; 49:1886-1897). Treatment with prednisolone was conducted at a final concentration of 200 uM (80 μg/ml). Prednisolone 21-acetate (Sigma) was reconstituted in ethanol at 200 mM (80 mg/ml) as a suspension and mixed well prior dilution of 1,000-fold into the culture medium. The drugs were exposed to the cells for the period of time described in results. Untreated control dishes received the same volume of absolute ethanol (drug vehicle) under identical conditions.
HTM cells were scraped from tissue culture dishes with guanidine thiocyanate buffer (RLT, Qiagen, Valencia, Calif., United States of America). Total RNA was extracted by loading the solution onto a QIA Shredder™ column (Qiagen) and continued by the use of the RNeasy Mini kit with on-column RNase-free DNAse digestion according to manufacturer's recommendations (Qiagen). Purified RNA was eluted in 30 ul RNase-free water and concentration measured with a NanoDrop ND-100 spectrophotometer (Thermo Fisher Scientific). For the tissue, human trabecular meshworks were excised from one week RNAlater (Ambion Applied Biosystems, Austin, Tex., United States of America) immersed anterior segments. One half of the isolated trabecular meshwork tissue was homogenized on 350 μl of RLT and RNA extraction continued as described for the cells. Recoveries were between 1.4 to 2 ug of RNA per human trabecular meshwork. […]

[2] = tested on: sheep eyes; conditions: cited from earlier work
[3] = tested on: sheep eyes with triamcinolone-induced ocular hypertension; conditions: for IOP on Day 4 after bilateral sub-Tenon injection: n=4, before virus
Experimental: All animal experiments were performed in accordance with the Association for Research in Vision and Ophthalmology (ARVO) guidelines. A total of 18 healthy (female) sheep (Corriedale breed) between 12 and 24 months of age, and weighing 35 to 40 kg, were selected from a local ranch in Corrientes, Argentina for this study. The eyes and general health of the animals were considered normal by an ophthalmologist and a veterinarian, respectively. Sheep were tagged for individual identification on their ear lobes and herded from pasture whenever it was necessary to 1) topically instill prednisolone, 2) inject a sub-Tenon depot of triamcinolone acetonide, 3) inject adenoviral vectors carrying the MMP1 transgene intracamerally via the cornea, or 4) measure IOP by applanation tonometry. To apply prednisolone, the sheep were guided into a funnel corral ending in a loose-fitting yoke. This arrangement allowed movement and holding of the head by one person while another instilled the drops. To measure IOP with a Perkins tonometer, the sheep were also guided into the funnel corral and then into the neck yoke. For the sub-Tenon injection of triamcinolone, and the trans-corneal injections of adenoviral vectors, sheep were anesthetized topically. Between all procedures, the sheep were free to pasture.
In those sheep in which triamcinolone was used to induce ocular hypertension, the following general protocol was applied. Two drops of proparacaine (0.5%) were topically instilled to the ocular surface. Then, a single 1-ml injection of sterile triamcinolone acetonide (40 mg/ml, or 4%; Bristol-Myers Squibb Co., Princeton, N.J., United States of America) was administered via sub-Tenon injection using a 30G needle inserted 5 mm from the limbus.
For the injections, the distance from the limbus was determined from the width of a 5 mm×30 mm Schirmer strip that was held between the limbus and the injection site. The conjunctiva at the injection site was grasped with fine forceps and an initial oblique conjunctival puncture was made with the needle bevel facing upwards. […] The needle was pushed through Tenon's capsule until the tip reached the sclera (as determined by feel). Care was taken to avoid puncturing the sclera itself. Also, since Tenon's capsule consists of several layers, care was also taken to administer a sub-Tenon (to create a juxta-scleral depot), and not an intra-Tenon's injection. Immediately following the injection the needle was rapidly withdrawn. The volume injected (1 ml) yielded a characteristic 180°-240° quasi-donut-shaped bolus of fluid around the limbus. Each injected eye then received drops of TOBREX® (tobramycin ophthalmic solution, 0.3%, Alcon Laboratories, Inc., Fort Worth, Tex., United States of America).
Animals were led to a funnel corral and their heads were suitably oriented within a neck yoke to enable an ophthalmologist to measure IOP with the Perkins tonometer. Before the IOP measurement, 2 drops of topical 0.5% proparacaine (Alcon Argentina) followed by 2 drops of 0.25% fluorescein were instilled. Two sets of measurements were taken on each eye alternating first one eye and then the other. All IOP measurements were taken between 2 PM and 4 PM every 2 or 3 days. The Perkins tonometry readings were converted to mmHg as described in detail previously (Kass et al., Arch Ophthalmol. 2002; 120:701-713).
Details of the design, construction, characterization and titration of the steroid-inducible MMP1 adenoviruses are provided in Example 2, above. At the time of viral administration, an Eppendorf™ tube containing the frozen virus suspension was thawed in the field as the sheep were immobilized within a narrow passage ending in a yoke. Two drops of topical proparacaine 0.5% (Alcon, Argentina) were instilled on the eyes as an anesthetic. Following this 30 μl of the virus suspension was injected into the eye using a Hamilton syringe with a 28G needle.

[4] = tested on: sheep eyes treated with triamcinolone or prednisolone; experiment: IOP in sheep given triamcinolone in one eye and prednisolone in the other, with Ad vector; assay type: in vivo, sheep (Ovis aries)
Text: After determining the baseline measurement of IOP over the course of several days, two drops of 0.5% prednisolone acetate (Ultracortenol; Novartis Ophthalmics, Hettlingen, Switzerland) was topically instilled 3-times daily at 7 AM, 2 PM, and 7 PM for durations that lasted for 10-15 days depending on the experiment. In some experiments, prednisolone was instilled bilaterally; in others only one eye received the corticosteroid.
The injection procedure took less than 30 seconds.
Additional experiments (employing 2 separate protocols, each on one sheep) tested the effects of the injection of Ad virus carrying active MMP1 transgene on the IOP of contralateral eyes treated with unilateral triamcinolone and unilateral prednisolone. In the first protocol of this set, one eye of a sheep was administered triamcinolone via a sub-Tenon injection two weeks before the start of IOP measurements. The point at which IOP measurements were initiated was designated “Day 0” of the experiment. […] After recording these measurements, thrice daily instillations of prednisolone were begun on eye OS. Three-days later, when the IOP's of both eyes were nearly identical, Ad virus carrying active MMP1 transgene was bilaterally injected into the anterior chambers of the eyes. […] At the point of virus injection, IOP of eye OD had been elevated for 17 days; after virus injection, IOP was reduced up to Day 24. […]

C[C@@H]1C[C@H]2[C@@H]3CCC4=CC(=O)C=C[C@]4(C)[C@@]3(F)[C@@H](O)C[C@]2(C)[C@@]1(O)C(=O)CO [DEX, dexamethasone]
MMP1 expression, RQ values (18S normalized MMP1 cDNA) ([1]; 0.1 μM DEX, 3 days, HTM-109 cells): 0.03±0.0002 | MMP1 expression, RQ values (18S normalized MMP1 cDNA) ([1]; 0.1 μM DEX, 6 days, HTM-109 cells): 0.002±0.0002 | MMP1 expression, RQ values (18S normalized MMP1 cDNA) ([1]; DEX removed from medium at 3 days, measured at day 6): 0.03±0.002 | downregulation of MMP1 at the transcriptional level ([1]; DEX-treated cells for 6 days): 500 fold

CC(=O)OCC(=O)[C@@]1(O)CC[C@H]2[C@@H]3CCC4=CC(=O)C=C[C@]4(C)[C@H]3[C@@H](O)C[C@@]21C [prednisolone, Prednisolone 21-acetate]
IOP increase ([2]; 0.5% topically three times daily, within 2 weeks): approximately 2.5 fold | incidence of intraocular pressure elevation in treated eyes ([2]; 0.5% topically three times daily): 100% | time for IOP to decline to baseline after discontinuation ([2]; in vivo): 1-3 weeks | MMP1 cDNA levels (RQ) ([1]; 80 μg/ml, 24 hours, HTM-109 cells): 0.16±0.02 | downregulation of MMP1 at the transcriptional level ([1]; shorter time periods): 6.2 fold

CC1(C)O[C@@H]2C[C@H]3[C@@H]4CCC5=CC(=O)C=C[C@]5(C)[C@@]4(F)[C@@H](O)C[C@]3(C)[C@]2(C(=O)CO)O1 [triamcinolone acetonide]
IOP 15 days after sub-Tenon drug injection ([3]; FIG. 9): less than 20 mmHg | IOP of the fellow eyes on Day 18 ([3]; depot nearly consumed, eyes had also received Ad vectors on Day 4, n=4 each): 10.5±0.4 mmHg and 12.4±0.2 mmHg | IOP on Day 4 after bilateral sub-Tenon injection ([3]; eyes then injected with active MMP1 vector): 22.1±0.2 mmHg | IOP on Day 4 after bilateral sub-Tenon injection ([3]; eyes then injected with mutated MMP1 vector): 22.6±0.8 mmHg | IOP on Day 4 after unilateral sub-Tenon injection ([3]; n=3, before null Ad injection): 25.2±0.4 mmHg | time the depot subsisted in the eye as judged by IOP ([3]; sub-Tenon depot): 14 to 20 days | time the depots subsisted as determined by the IOP ([3]; sub-Tenon depot): 2-3 weeks | MMP1 cDNA levels (RQ) ([1]; 0.1 mg/ml, 12 hours, HTM-109 cells): 0.42±0.1 | downregulation of MMP1 at the transcriptional level ([1]; shorter time periods): 2.4 fold | IOP of the triamcinolone-treated eye on Day 15 ([4]; FIGS. 11 and 12): above 25 mmHg | IOP of the eye given triamcinolone relative to fellow eye on Day 0 ([4]; sub-Tenon injection two weeks before): about twice that of eye OS
